{
  "source": "patent US6914045B2",
  "about": "“Glycopeptide antibiotics” (Wyeth Holdings Corporation, priority 2001, dated 2005)",
  "experiment_in_all_cases": "in vitro antibacterial evaluation, MIC by broth dilution",
  "assay_type_in_all_cases": "cell-based",
  "key": {"Enterococcus sp.": {"system": "Enterococcus sp.", "settings": "broth dilution, 18 hours at 35° C.", "method": "(§1) Methods for in vitro Antibacterial Evaluation (Table 1)\n(§2) The minimum inhibitory concentration (MIC), the lowest concentration of the antibiotic which inhibits growth of the test organism, is determined by the broth dilution method using Muller-Hinton II […] (Baltimore Biological Laboratories) following the recommendations of the National Committee for Clinical Laboratory Standards [Methods for dilution antimicrobial susceptibility tests for bacteria that grow aerobically, approved standard M7-A2, National Committee for Clinical Laboratory Standards, Villanova, Pa.].\n(§3) An inoculum level of 5×10^5 CFU/mL, and a range of antibiotic concentrations (64-0.06 μg/mL) is used. […] The test organisms include a spectrum of Gram-positive bacteria comprised of Staphylococcus sp., Streptococcus sp. and Enterococcus sp. These organisms include recent clinical isolates that are resistant to methicillin, penicillin and/or vancomycin."}, "Streptococcus sp.": {"system": "Streptococcus sp.", "settings": "broth dilution, 18 hours at 35° C.", "method": "as §1, §2, §3"}, "Staphylococcus sp.": {"system": "Staphylococcus sp.", "settings": "broth dilution, 18 hours at 35° C.; for MIC Staphylococcus aureus (GC 1131): strain GC 1131", "method": "as §1, §2, §3"}, "Escherichia coli": {"system": "Escherichia coli", "settings": "18 hours at 35° C."}},
  "data": [
    {"molecule": "N=C1NCC(C(O)C2NC(=O)C(Cc3ccc(OC4OC(CO)C(OC5OC6COC(c7ccccc7)OC6C(O)C5O)C(O)C4O)cc3)NC(=O)C(CC3CCCCC3)NC(=O)CNC(=O)C(CO)NC(=O)C(C(O)C3CNC(=N)N3C3OC(CO)C(O)C(O)C3O)NC2=O)N1", "note": "(stereo not shown) [Example 199]", "values": [
      {"measurement": "MIC Enterococcus avium (GC 4558)", "setting": "Enterococcus sp.", "result": 2, "unit": "µg/mL"},
      {"measurement": "MIC Enterococcus faecalis (ATCC 29212)", "setting": "Enterococcus sp.", "result": 4, "unit": "µg/mL"},
      {"measurement": "MIC Enterococcus faecalis (GC 2242)", "setting": "Enterococcus sp.", "result": 2, "unit": "µg/mL"},
      {"measurement": "MIC Enterococcus faecalis (GC 2691)", "setting": "Enterococcus sp.", "result": 4, "unit": "µg/mL"},
      {"measurement": "MIC Enterococcus faecalis (GC 3059)", "setting": "Enterococcus sp.", "result": 4, "unit": "µg/mL"},
      {"measurement": "MIC Enterococcus faecalis (GC 4552)", "setting": "Enterococcus sp.", "result": 4, "unit": "µg/mL"},
      {"measurement": "MIC Enterococcus faecalis (GC 4553)", "setting": "Enterococcus sp.", "result": 4, "unit": "µg/mL"},
      {"measurement": "MIC Enterococcus faecalis (GC 4554)", "setting": "Enterococcus sp.", "result": 4, "unit": "µg/mL"},
      {"measurement": "MIC Enterococcus faecalis (GC 6189)", "setting": "Enterococcus sp.", "result": 2, "unit": "µg/mL"},
      {"measurement": "MIC Enterococcus faecium (GC 2243)", "setting": "Enterococcus sp.", "result": 4, "unit": "µg/mL"},
      {"measurement": "MIC Enterococcus faecium (GC 4556)", "setting": "Enterococcus sp.", "result": 4, "unit": "µg/mL"},
      {"measurement": "MIC Enterococcus faecium (GC 4557)", "setting": "Enterococcus sp.", "result": 2, "unit": "µg/mL"},
      {"measurement": "MIC Enterococcus faecalis (ATCC 29212)", "setting": "Enterococcus sp.; inoculum 5×10^5 CFU/mL, strain ATCC 29212", "result": 4, "unit": "µg/mL"},
      {"measurement": "MIC Enterococcus faecalis (GC 2242)", "setting": "Enterococcus sp.; inoculum 5×10^5 CFU/mL, strain GC 2242", "result": 2, "unit": "µg/mL"},
      {"measurement": "MIC Enterococcus faecium (GC 2243)", "setting": "Enterococcus sp.; inoculum 5×10^5 CFU/mL, strain GC 2243", "result": 4, "unit": "µg/mL"},
      {"measurement": "MIC Enterococcus faecalis (GC 2691)", "setting": "Enterococcus sp.; inoculum 5×10^5 CFU/mL, strain GC 2691", "result": 4, "unit": "µg/mL"},
      {"measurement": "MIC Enterococcus faecalis (GC 3059)", "setting": "Enterococcus sp.; inoculum 5×10^5 CFU/mL, strain GC 3059", "result": 4, "unit": "µg/mL"},
      {"measurement": "MIC Enterococcus faecalis (GC 4552)", "setting": "Enterococcus sp.; inoculum 5×10^5 CFU/mL, strain GC 4552", "result": 4, "unit": "µg/mL"},
      {"measurement": "MIC Enterococcus faecalis (GC 4553)", "setting": "Enterococcus sp.; inoculum 5×10^5 CFU/mL, strain GC 4553", "result": 4, "unit": "µg/mL"},
      {"measurement": "MIC Enterococcus faecalis (GC 4554)", "setting": "Enterococcus sp.; inoculum 5×10^5 CFU/mL, strain GC 4554", "result": 4, "unit": "µg/mL"},
      {"measurement": "MIC Enterococcus faecium (GC 4556)", "setting": "Enterococcus sp.; inoculum 5×10^5 CFU/mL, strain GC 4556", "result": 4, "unit": "µg/mL"},
      {"measurement": "MIC Enterococcus faecium (GC 4557)", "setting": "Enterococcus sp.; inoculum 5×10^5 CFU/mL, strain GC 4557", "result": 2, "unit": "µg/mL"},
      {"measurement": "MIC Enterococcus avium (GC 4558)", "setting": "Enterococcus sp.; inoculum 5×10^5 CFU/mL, strain GC 4558", "result": 2, "unit": "µg/mL"},
      {"measurement": "MIC Enterococcus faecalis (GC 6189)", "setting": "Enterococcus sp.; inoculum 5×10^5 CFU/mL, strain GC 6189", "result": 2, "unit": "µg/mL"},
      {"measurement": "MIC Streptococcus agalactiae (GC 4564)", "setting": "Streptococcus sp.", "result": "<0.12", "unit": "µg/mL"},
      {"measurement": "MIC Streptococcus pneumoniae (ATCC 6301)", "setting": "Streptococcus sp.", "result": "<0.12", "unit": "µg/mL"},
      {"measurement": "MIC Streptococcus pneumoniae (GC 1894)", "setting": "Streptococcus sp.", "result": "<0.12", "unit": "µg/mL"},
      {"measurement": "MIC Streptococcus pneumoniae (GC 4565)", "setting": "Streptococcus sp.", "result": "<0.12", "unit": "µg/mL"},
      {"measurement": "MIC Streptococcus pyogenes (GC 4563)", "setting": "Streptococcus sp.", "result": "<0.12", "unit": "µg/mL"},
      {"measurement": "MIC Streptococcus pneumoniae (ATCC 6301)", "setting": "Streptococcus sp.; inoculum 5×10^5 CFU/mL, strain ATCC 6301", "result": "<0.12", "unit": "µg/mL"},
      {"measurement": "MIC Streptococcus pneumoniae (GC 1894)", "setting": "Streptococcus sp.; inoculum 5×10^5 CFU/mL, strain GC 1894", "result": "<0.12", "unit": "µg/mL"},
      {"measurement": "MIC Streptococcus pyogenes (GC 4563)", "setting": "Streptococcus sp.; inoculum 5×10^5 CFU/mL, strain GC 4563", "result": "<0.12", "unit": "µg/mL"},
      {"measurement": "MIC Streptococcus agalactiae (GC 4564)", "setting": "Streptococcus sp.; inoculum 5×10^5 CFU/mL, strain GC 4564", "result": "<0.12", "unit": "µg/mL"},
      {"measurement": "MIC Streptococcus pneumoniae (GC 4565)", "setting": "Streptococcus sp.; inoculum 5×10^5 CFU/mL, strain GC 4565", "result": "<0.12", "unit": "µg/mL"},
      {"measurement": "MIC Staphylococcus aureus (GC 1131)", "setting": "Staphylococcus sp.; inoculum 5×10^5 CFU/mL", "result": 2, "unit": "µg/mL"},
      {"measurement": "MIC Staphylococcus aureus (ATCC 29213)", "setting": "Staphylococcus sp.; strain ATCC 29213", "result": 2, "unit": "µg/mL"},
      {"measurement": "MIC Staphylococcus aureus (GC 1131)", "setting": "Staphylococcus sp.", "result": 2, "unit": "µg/mL"},
      {"measurement": "MIC Staphylococcus aureus (GC 3051)", "setting": "Staphylococcus sp.; strain GC 3051", "result": 1, "unit": "µg/mL"},
      {"measurement": "MIC Staphylococcus aureus (GC 3053)", "setting": "Staphylococcus sp.; strain GC 3053", "result": 2, "unit": "µg/mL"},
      {"measurement": "MIC Staphylococcus aureus (GC 4541)", "setting": "Staphylococcus sp.; strain GC 4541", "result": 2, "unit": "µg/mL"},
      {"measurement": "MIC Staphylococcus aureus (GC 4542)", "setting": "Staphylococcus sp.; strain GC 4542", "result": 1, "unit": "µg/mL"},
      {"measurement": "MIC Staphylococcus aureus-SMITH (GC 4543)", "setting": "Staphylococcus sp.; strain GC 4543", "result": 1, "unit": "µg/mL"},
      {"measurement": "MIC Staphylococcus aureus (GC 4544)", "setting": "Staphylococcus sp.; strain GC 4544", "result": 2, "unit": "µg/mL"},
      {"measurement": "MIC Staphylococcus aureus (GC 4545)", "setting": "Staphylococcus sp.; strain GC 4545", "result": 1, "unit": "µg/mL"},
      {"measurement": "MIC Staphylococcus haemolyticus (GC 4546)", "setting": "Staphylococcus sp.; strain GC 4546", "result": 1, "unit": "µg/mL"},
      {"measurement": "MIC Coagulase Negative Staphylococcus (GC 4547)", "setting": "Staphylococcus sp.; strain GC 4547", "result": 2, "unit": "µg/mL"},
      {"measurement": "MIC Coagulase Negative Staphylococcus (GC 4548)", "setting": "Staphylococcus sp.; strain GC 4548", "result": 0.5, "unit": "µg/mL"},
      {"measurement": "MIC Coagulase Negative Staphylococcus (GC 4549)", "setting": "Staphylococcus sp.; strain GC 4549", "result": 0.5, "unit": "µg/mL"},
      {"measurement": "MIC Coagulase Negative Staphylococcus (GC 4551)", "setting": "Staphylococcus sp.; strain GC 4551", "result": 1, "unit": "µg/mL"},
      {"measurement": "MIC Escherichia coli (ATCC 25922)", "setting": "Escherichia coli", "result": 64, "unit": "µg/mL"},
      {"measurement": "MIC Escherichia coli (GC 4559)", "setting": "Escherichia coli", "result": 32, "unit": "µg/mL"},
      {"measurement": "MIC Escherichia coli (GC 4560)", "setting": "Escherichia coli", "result": 1, "unit": "µg/mL"}
    ]}
  ]
}
